The values below come from PubChem BioAssay (NCI).

Test systems include HCT-116 colon; SF-539 CNS; NCI-H226 lung; MDA-MB-435; COLO 205 colon; OVCAR-4 ovarian; PC-3 prostate; SN12C renal; MOLT-4 leukemia; A498 renal.
Holding throughout (assay): NCI anticancer screen, dose series, 48 h

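Protocol summary: plate cells (96-well), add compound at 5 concentrations, incubate 48 h, interpolate endpoints linearly. GI50 marks 50% less growth. TGI: total growth inhibition.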 Where only a bound is given, the exact number is not on record here.

`COC1(OC)CC(CO)(COc2cc(Cl)nc(N)n2)C1`: the TGI in the experiment on HCT-116 colon, in the experiment on SF-539 CNS, with NCI-H226 lung, in the experiment with MDA-MB-435, in the experiment on COLO 205 colon and with OVCAR-4 ovarian was over 100 µM each time. Moreover, the TGI in the experiment on PC-3 prostate, with SN12C renal and with MOLT-4 leukemia was over 100 µM in each case.
As for `C=C1c2c(n(S(=O)(=O)c3ccccc3)c3ccccc23)[C@@]2(C(=O)OC)CC3C=CC2N1C3`, the TGI in the experiment on HCT-116 colon, in the experiment with SF-539 CNS, with NCI-H226 lung, in the experiment on MDA-MB-435, with COLO 205 colon and in the experiment with OVCAR-4 ovarian was over 100 µM each time. In addition, the TGI in the experiment on PC-3 prostate, in the experiment with SN12C renal and with MOLT-4 leukemia was over 100 µM throughout.
As for `CCCN=C1NC(C)=CSC(Nc2ccccc2)=C1C#N`, the TGI in the experiment on A498 renal, in the experiment on HCT-116 colon, in the experiment on SF-539 CNS, with MDA-MB-435, in the experiment with COLO 205 colon and with OVCAR-4 ovarian was over 100 µM throughout. The TGI in the experiment with PC-3 prostate, in the experiment on SN12C renal and in the experiment with MOLT-4 leukemia was over 100 µM each time.
In the case of `O/N=C1\C/C(=N\O)c2c(Br)sc(Br)c21`, the TGI with A498 renal, in the experiment on HCT-116 colon, in the experiment with SF-539 CNS, in the experiment with NCI-H226 lung, with MDA-MB-435 and in the experiment with COLO 205 colon was over 100 µM in each case. Further, the TGI was over 100 µM in the experiment with OVCAR-4 ovarian, over 100 µM in the experiment with SN12C renal and 92.7 µM with MOLT-4 leukemia.
Regarding `OCc1ccc2c(c1)CC1(Cc3ccccc3C1)C2`, the TGI was over 100 µM in the experiment with A498 renal; 35.5 µM in the experiment on HCT-116 colon; 44.3 µM with SF-539 CNS; over 100 µM with NCI-H226 lung; 31.2 µM in the experiment on COLO 205 colon; over 100 µM with OVCAR-4 ovarian. Further, the figures for the TGI in the experiment with PC-3 prostate and with SN12C renal were 33.5 µM and 45.8 µM, respectively.
Take `CCCCCCc1ccc(CCCCCCCC(=O)O)o1`: the TGI in the experiment with HCT-116 colon, in the experiment with SF-539 CNS, in the experiment with NCI-H226 lung, in the experiment with MDA-MB-435, in the experiment with COLO 205 colon and in the experiment with OVCAR-4 ovarian was over 100 µM in each case. Besides, the TGI with PC-3 prostate is over 100 µM; with SN12C renal it was over 100 µM; in the experiment with MOLT-4 leukemia it was 36.1 µM.
In the case of `O=S(=O)(O)c1cc(S(=O)(=O)O)c2cc(N=Nc3ccc(N=Nc4ccc(/C=C/c5ccc(N=[N+]([O-])c6ccc(/C=C/c7ccc(N=Nc8ccc(N=Nc9ccc%10cc(S(=O)(=O)O)cc(S(=O)(=O)O)c%10c9)cc8)cc7S(=O)(=O)O)c(S(=O)(=O)O)c6)cc5S(=O)(=O)O)c(S(=O)(=O)O)c4)cc3)ccc2c1`, the TGI in the experiment with A498 renal, in the experiment with HCT-116 colon, in the experiment on SF-539 CNS, in the experiment on NCI-H226 lung, in the experiment on COLO 205 colon and with OVCAR-4 ovarian was over 100 µM each time. In addition, the TGI in the experiment with SN12C renal and in the experiment with MOLT-4 leukemia was over 100 µM each time.
For `CC(=O)/C=C(/C)[O-].CC(=O)/C=C(/C)[O-].CC(=O)[CH-]C(C)=O.CC(=O)[CH-]C(C)=O.[Zr+4]`, the GI50 is over 100 µM in the experiment on A498 renal; 3.89 µM in the experiment on HCT-116 colon; over 100 µM in the experiment with SF-539 CNS; over 100 µM in the experiment on OVCAR-4 ovarian; over 100 µM with SN12C renal; over 100 µM in the experiment with MOLT-4 leukemia. Also, the TGI in the experiment on A498 renal was over 100 µM; with HCT-116 colon, 16.3 µM; in the experiment on SF-539 CNS, over 100 µM; in the experiment with OVCAR-4 ovarian it was over 100 µM; in the experiment with SN12C renal, over 100 µM; with MOLT-4 leukemia, over 100 µM.
Take `CCN(CC)/N=C\c1c2ccccc2cc2ccccc12`: the TGI was over 100 µM in the experiment with A498 renal; over 100 µM with HCT-116 colon; over 100 µM in the experiment with SF-539 CNS; over 100 µM with MDA-MB-435; 53.5 µM in the experiment on COLO 205 colon; over 100 µM in the experiment with OVCAR-4 ovarian. In addition, the TGI in the experiment with PC-3 prostate, in the experiment on SN12C renal and in the experiment on MOLT-4 leukemia was over 100 µM in each case.
On to `Cc1ccc(/C=c2\c(=O)[nH]c3nc4ccccc4c(=O)n23)cc1`, for which the TGI with HCT-116 colon is over 100 µM; in the experiment on SF-539 CNS it was 43.7 µM; with MDA-MB-435, 60.5 µM; in the experiment with COLO 205 colon, 42.2 µM; with OVCAR-4 ovarian it was over 100 µM; with PC-3 prostate it was over 100 µM. Moreover, the TGI in the experiment with SN12C renal and in the experiment on MOLT-4 leukemia was over 100 µM each time.
Regarding `Clc1nc2nc(N3CCNCC3)nc(N3CCCC3)c2[nH]1`, the TGI in the experiment with HCT-116 colon is 29.7 µM; with SF-539 CNS, 33.8 µM; with NCI-H226 lung, over 100 µM; with MDA-MB-435, 34.5 µM; with COLO 205 colon, 31 µM; in the experiment on OVCAR-4 ovarian, 35 µM. The TGI came out at 33.9 µM in the experiment with PC-3 prostate, 34.4 µM with SN12C renal and 43.1 µM in the experiment with MOLT-4 leukemia.
For `Clc1ccc(C2SCc3nc4ccccc4n32)cc1` (stereo not drawn), the TGI with A498 renal was determined as 55.5 µM; in the experiment on SF-539 CNS, 76.8 µM; in the experiment with NCI-H226 lung, 75.4 µM; in the experiment with COLO 205 colon, 36.8 µM; in the experiment with SN12C renal, 42.7 µM; with MOLT-4 leukemia it was 56.1 µM.
For the molecule `CCOC(=O)c1nc2ccccc2nc1Nc1ccc(C(=O)OC)s1`, the TGI in the experiment on A498 renal, in the experiment on HCT-116 colon, in the experiment with SF-539 CNS, in the experiment on MDA-MB-435, in the experiment on COLO 205 colon and in the experiment on OVCAR-4 ovarian was over 100 µM in each case. The TGI in the experiment on PC-3 prostate, in the experiment with SN12C renal and in the experiment on MOLT-4 leukemia was over 100 µM throughout.
`CCOP(=O)(OCC)C(Nc1ccc(Cl)cc1)c1ccc(F)cc1` (stereo not drawn): the TGI in the experiment with A498 renal stood at 58.7 µM; in the experiment with HCT-116 colon, 44.5 µM; in the experiment on SF-539 CNS it was 49 µM; in the experiment with NCI-H226 lung it was 88 µM; with MDA-MB-435 it was 39.7 µM; in the experiment on COLO 205 colon, 87.1 µM. Further, the TGI in the experiment with OVCAR-4 ovarian was over 100 µM; in the experiment with SN12C renal it was 53.2 µM; with MOLT-4 leukemia, 61.7 µM.
